This passage reports mutagenic call results from PubChem BioAssay AID1259407 (Chemical Carcinogenesis Research Information System (CCRIS), 2018).

The subject of this data set is CCRIS mutagenicity, Ames/micronucleus/aberration tests. The data set can be described thus: CCRIS mutagenicity studies.
Setting [1] is: Test System: AMES SALMONELLA TYPHIMURIUM, Strain/Indicator: TA97, Metabolic Activation: HAMSTER, LIVER, S-9, AROCLOR 1254 (10%), Method: PREINCUBATION
[2] abbreviates: Test System: AMES SALMONELLA TYPHIMURIUM, Strain/Indicator: TA97, Metabolic Activation: NONE, Method: PREINCUBATION
Where [3] appears, read: Test System: AMES SALMONELLA TYPHIMURIUM, Strain/Indicator: TA97, Metabolic Activation: RAT, LIVER, S-9, AROCLOR 1254 (10%), Method: PREINCUBATION
The mark [4] stands for this setting: Test System: AMES SALMONELLA TYPHIMURIUM, Strain/Indicator: TA98, Metabolic Activation: NONE, Method: PREINCUBATION
The mark [5] stands for this setting: Test System: AMES SALMONELLA TYPHIMURIUM, Strain/Indicator: TA98, Metabolic Activation: RAT, LIVER, S-9, AROCLOR 1254 (10%), Method: PREINCUBATION
Setting [6] is: Test System: AMES SALMONELLA TYPHIMURIUM, Strain/Indicator: TA98, Metabolic Activation: RAT, LIVER, S-9, AROCLOR 1254 (30%), Method: PREINCUBATION
Setting [7] is: Test System: AMES SALMONELLA TYPHIMURIUM, Strain/Indicator: TA100, Metabolic Activation: NONE, Method: PREINCUBATION
Setting [8] is: Test System: AMES SALMONELLA TYPHIMURIUM, Strain/Indicator: TA1535, Metabolic Activation: HAMSTER, LIVER, S-9, AROCLOR 1254 (10%), Method: PREINCUBATION
The mark [9] stands for this setting: Test System: AMES SALMONELLA TYPHIMURIUM, Strain/Indicator: TA1535, Metabolic Activation: NONE, Method: PREINCUBATION
Setting [10] is: Test System: AMES SALMONELLA TYPHIMURIUM, Strain/Indicator: TA1535, Metabolic Activation: RAT, LIVER, S-9, AROCLOR 1254 (10%), Method: PREINCUBATION
The mark [11] stands for this setting: Test System: AMES SALMONELLA TYPHIMURIUM, Strain/Indicator: TA1537, Metabolic Activation: NONE, Method: PREINCUBATION

The source made the active and inactive calls. How the calls were made is not given here.

On to `O=C(O)C1=NN(c2ccc(S(=O)(=O)O)cc2)C(=O)C1N=Nc1ccc(S(=O)(=O)O)cc1.[Al]` (stereo unspecified), for which the mutagenic call was “inactive; negative” under setting [1]; “inactive; negative” (Test System: AMES SALMONELLA TYPHIMURIUM, Strain/Indicator: TA97, Metabolic Activation: HAMSTER, LIVER, S-9, AROCLOR 1254 (30%), Method: PREINCUBATION); “inactive; negative” under setting [2]; “inactive; negative” under setting [3]; “inactive; negative” (Test System: AMES SALMONELLA TYPHIMURIUM, Strain/Indicator: TA97, Metabolic Activation: RAT, LIVER, S-9, AROCLOR 1254 (30%), Method: PREINCUBATION); “inactive; negative” (Test System: AMES SALMONELLA TYPHIMURIUM, Strain/Indicator: TA98, Metabolic Activation: HAMSTER, LIVER, S-9, AROCLOR 1254 (10%), Method: PREINCUBATION). The mutagenic call runs as follows: (Test System: AMES SALMONELLA TYPHIMURIUM, Strain/Indicator: TA98, Metabolic Activation: HAMSTER, LIVER, S-9, AROCLOR 1254 (30%), Method: PREINCUBATION) “inactive; negative”; under setting [4], “inactive; negative”; under setting [5], “inactive; negative”; under setting [6], “inactive; negative”; (Test System: AMES SALMONELLA TYPHIMURIUM, Strain/Indicator: TA100, Metabolic Activation: HAMSTER, LIVER, S-9, AROCLOR 1254 (10%), Method: PREINCUBATION) “inactive; negative”; (Test System: AMES SALMONELLA TYPHIMURIUM, Strain/Indicator: TA100, Metabolic Activation: HAMSTER, LIVER, S-9, AROCLOR 1254 (30%), Method: PREINCUBATION) “inactive; negative”. For the same molecule, the mutagenic call is “inactive; negative” under setting [7]; “inactive; negative” (Test System: AMES SALMONELLA TYPHIMURIUM, Strain/Indicator: TA100, Metabolic Activation: RAT, LIVER, S-9, AROCLOR 1254 (10%), Method: PREINCUBATION); “inactive; negative” (Test System: AMES SALMONELLA TYPHIMURIUM, Strain/Indicator: TA100, Metabolic Activation: RAT, LIVER, S-9, AROCLOR 1254 (30%), Method: PREINCUBATION); “inactive; negative” under setting [8]; “inactive; negative” (Test System: AMES SALMONELLA TYPHIMURIUM, Strain/Indicator: TA1535, Metabolic Activation: HAMSTER, LIVER, S-9, AROCLOR 1254 (30%), Method: PREINCUBATION); “inactive; negative” under setting [9]. Besides, the mutagenic call is, setting by setting: under setting [10], “inactive; negative”; (Test System: AMES SALMONELLA TYPHIMURIUM, Strain/Indicator: TA1535, Metabolic Activation: RAT, LIVER, S-9, AROCLOR 1254 (30%), Method: PREINCUBATION) “inactive; negative”; (Test System: AMES SALMONELLA TYPHIMURIUM, Strain/Indicator: TA1537, Metabolic Activation: HAMSTER, LIVER, S-9, AROCLOR 1254 (30%), Method: PREINCUBATION) “inactive; negative”; under setting [11], “inactive; negative”; (Test System: AMES SALMONELLA TYPHIMURIUM, Strain/Indicator: TA1537, Metabolic Activation: RAT, LIVER, S-9, AROCLOR 1254 (30%), Method: PREINCUBATION) “inactive; negative”.
For `CCN(CC)c1ccc(N=O)cc1`, the mutagenic call (Test System: AMES SALMONELLA TYPHIMURIUM, Strain/Indicator: TA100, Metabolic Activation: NONE, Method: FLUCTUATION TEST) was “active; positive”.
In the case of `NC(=O)N(CCO)N=O`, the mutagenic call reads like this: (Test System: E. COLI B, Strain/Indicator: H/R30R, Metabolic Activation: NONE) “active; positive”; (Test System: E. COLI B, Strain/Indicator: HS30R, Metabolic Activation: NONE) “active; positive”.
Take `CC(=O)c1ccc2ccccc2c1`: the mutagenic call under setting [2] was “inactive; negative”; the mutagenic call (Test System: AMES SALMONELLA TYPHIMURIUM, Strain/Indicator: TA97, Metabolic Activation: RAT, LIVER, S-9, AROCLOR 1254, Method: PREINCUBATION) is “inactive; negative”; the mutagenic call (Test System: AMES SALMONELLA TYPHIMURIUM, Strain/Indicator: TA102, Metabolic Activation: NONE, Method: PREINCUBATION) was “inactive; negative”; the mutagenic call (Test System: AMES SALMONELLA TYPHIMURIUM, Strain/Indicator: TA102, Metabolic Activation: RAT, LIVER, S-9, AROCLOR 1254, Method: PREINCUBATION) was “inactive; negative”.
Turning to `O=C(NO)c1ccccc1`, the mutagenic call runs as follows: under setting [1], “active; positive”; under setting [2], “active; positive”; under setting [3], “active; positive”; (Test System: AMES SALMONELLA TYPHIMURIUM, Strain/Indicator: TA98, Metabolic Activation: HAMSTER, LIVER, S-9, AROCLOR 1254 (10 OR 30%), Method: PREINCUBATION) “active; positive”; under setting [4], “active; positive”; under setting [5], “active; positive”. For the same molecule, the mutagenic call is “active; positive” under setting [6]; “active; positive” (Test System: AMES SALMONELLA TYPHIMURIUM, Strain/Indicator: TA100, Metabolic Activation: HAMSTER, LIVER, S-9, AROCLOR 1254 (10 OR 30%), Method: PREINCUBATION); “active; positive” under setting [7]; “active; positive” (Test System: AMES SALMONELLA TYPHIMURIUM, Strain/Indicator: TA100, Metabolic Activation: RAT, LIVER, S-9, AROCLOR 1254 (10 OR 30%), Method: PREINCUBATION); “active; positive” under setting [8]; “inactive; negative” under setting [9]. The mutagenic call by setting is: under setting [10], “active; positive”; (Test System: AMES SALMONELLA TYPHIMURIUM, Strain/Indicator: TA1537, Metabolic Activation: HAMSTER, LIVER, S-9, AROCLOR 1254 (10%), Method: PREINCUBATION) “active; positive”; under setting [11], “active; positive”; (Test System: AMES SALMONELLA TYPHIMURIUM, Strain/Indicator: TA1537, Metabolic Activation: RAT, LIVER, S-9, AROCLOR 1254 (10%), Method: PREINCUBATION) “active; positive”.
Consider `Cc1cc(N)c(C)cc1N`, for which the mutagenic call (Test System: AMES SALMONELLA TYPHIMURIUM, Strain/Indicator: TA98, Metabolic Activation: NONE, Method: STANDARD PLATE) is “inactive; negative”; the mutagenic call (Test System: AMES SALMONELLA TYPHIMURIUM, Strain/Indicator: TA98, Metabolic Activation: RAT, LIVER, S-9, AROCLOR 1254, Method: STANDARD PLATE) is “active; positive”; the mutagenic call (Test System: AMES SALMONELLA TYPHIMURIUM, Strain/Indicator: TA100, Metabolic Activation: NONE, Method: STANDARD PLATE) is “inactive; negative”; the mutagenic call (Test System: AMES SALMONELLA TYPHIMURIUM, Strain/Indicator: TA100, Metabolic Activation: RAT, LIVER, S-9, AROCLOR 1254, Method: STANDARD PLATE) was “inactive; negative”; the mutagenic call (Test System: AMES SALMONELLA TYPHIMURIUM, Strain/Indicator: TA1535, Metabolic Activation: NONE, Method: STANDARD PLATE) is “inactive; negative”; the mutagenic call (Test System: AMES SALMONELLA TYPHIMURIUM, Strain/Indicator: TA1535, Metabolic Activation: RAT, LIVER, S-9, AROCLOR 1254, Method: STANDARD PLATE) is “inactive; negative”. For the same molecule, the mutagenic call (Test System: AMES SALMONELLA TYPHIMURIUM, Strain/Indicator: TA1537, Metabolic Activation: NONE, Method: STANDARD PLATE) is “inactive; negative”; the mutagenic call (Test System: AMES SALMONELLA TYPHIMURIUM, Strain/Indicator: TA1537, Metabolic Activation: RAT, LIVER, S-9, AROCLOR 1254, Method: STANDARD PLATE) was “inactive; negative”; the mutagenic call (Test System: AMES SALMONELLA TYPHIMURIUM, Strain/Indicator: TA1538, Metabolic Activation: NONE, Method: STANDARD PLATE) was “inactive; negative”; the mutagenic call (Test System: AMES SALMONELLA TYPHIMURIUM, Strain/Indicator: TA1538, Metabolic Activation: RAT, LIVER, S-9, AROCLOR 1254, Method: STANDARD PLATE) was “inactive; negative”.
